# How the values were obtained:
# Test in all cases: Test B pre-/postemergence plant response
# Format in all cases: in vivo
# [1] = test system: johnsongrass (Sorghum halepense)
# Procedure, shortened: (§1)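 Visual ratings on a 0–100 scale (100 = complete control) were made versus untreated controls 13–15 days after treatment in a greenhouse. Compounds in surfactant-containing non-phytotoxic solvent were applied preemergence to seeds in loam–sand blend or postemergence to 1- to 4-leaf plants (2–18 cm).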
# [2] = test system: velvetleaf (Abutilon theophrasti)
# Procedure, shortened: as §1
# [3] = test system: goosegrass (Eleusine indica)
# Procedure, shortened: as §1
# [4] = test system: woolly cupgrass (Eriochloa villosa)
# Procedure, shortened: as §1
# [5] = test system: giant foxtail (Setaria faberii)
# Procedure, shortened: as §1
# corn (Zea mays) = test system: corn (Zea mays)
# Procedure, shortened: as §1
# [6] = test system: yellow nutsedge (Cyperus esculentus)
# Procedure, shortened: as §1
# [7] = test system: green foxtail (Setaria viridis)
# Procedure, shortened: as §1
# [8] = test system: Italian ryegrass (Lolium multiflorum)
# Procedure, shortened: as §1
# [9] = test system: blackgrass (Alopecurus myosuroides)
# Procedure, shortened: as §1
# [10] = test system: ragweed (common ragweed, Ambrosia elatior)
# Procedure, shortened: as §1
# [11] = test system: downy bromegrass (Bromus tectorum)
# Procedure, shortened: as §1
# kochia (Kochia scoparia) = test system: kochia (Kochia scoparia)
# Procedure, shortened: as §1
# [12] = test system: Surinam grass (Brachiaria decumbens)
# Procedure, shortened: as §1
# [13] = test system: lambsquarters (Chenopodium album)
# Procedure, shortened: as §1
# [14] = test system: large crabgrass (Digitaria sanguinalis)
# Procedure, shortened: as §1
# [15] = test system: bermudagrass (Cynodon dactylon)
# Procedure, shortened: as §1
# [16] = 31 g ai/ha, postemergence, scale 0 to 100, 0 is no effect, 100 is complete control
# [17] = 250 g ai/ha, Preemergence, 0 to 100 scale
# [18] = Postemergence, 62 g ai/ha, scale 0 (no effect) to 100 (complete control), 13 to 15 days
# [19] = Postemergence, 125 g ai/ha, visual rating after 13 to 15 days, scale 0 (no effect) to 100 (complete control)
# [20] = Postemergence, 250 g ai/ha, scale 0 to 100
# [21] = Preemergence, 31 g ai/ha, scale 0 to 100 (0 no effect, 100 complete control)
# [22] = Preemergence, 62 g ai/ha, scale 0 to 100, 0 no effect, 100 complete control
# [23] = Preemergence, 125 g ai/ha, 0 to 100 scale
smiles,measurement,setting,value
CCn1c(-c2ccccc2)ncc(C(=O)C2=C(O)CCCC2=O)c1=O [Compound 49],"Plant response rating, Johnsongrass",[1]; [16],0
same,"Plant response rating, Johnsongrass",[1]; [17],10
same,"Plant response rating, Johnsongrass",[1]; [18],0
same,"Plant response rating, Johnsongrass",[1]; [19],10
same,Johnsongrass plant response rating,[1]; [20],10
same,"Plant response rating, Johnsongrass",[1]; [21],0
same,"Plant response rating, Johnsongrass",[1]; [22],0
same,Johnsongrass plant response rating,[1]; [23],0
same,"Plant response rating, Velvetleaf",[2]; [16],90
same,"Plant response rating, Velvetleaf",[2]; [17],100
same,"Plant response rating, Velvetleaf",[2]; [18],95
same,"Plant response rating, Velvetleaf",[2]; [19],98
same,"Plant response rating, Velvetleaf",[2]; [21],95
same,Velvetleaf plant response rating,[2]; [23],100
same,"Plant response rating, Goosegrass",[3]; [16],65
same,"Plant response rating, Goosegrass",[3]; [17],100
same,"Plant response rating, Goosegrass",[3]; [18],70
same,"Plant response rating, Goosegrass",[3]; [19],70
same,Goosegrass plant response rating,[3]; [20],70
same,"Plant response rating, Goosegrass",[3]; [21],20
same,Goosegrass plant response rating,[3]; [23],98
same,"Plant response rating, Cupgrass, Woolly",[4]; [16],50
same,"Plant response rating, Cupgrass, Woolly",[4]; [17],20
same,"Plant response rating, Cupgrass, Woolly",[4]; [18],50
same,"Plant response rating, Cupgrass, Woolly",[4]; [19],55
same,"Cupgrass, Woolly plant response rating",[4]; [20],55
same,"Plant response rating, Cupgrass, Woolly",[4]; [21],0
same,"Plant response rating, Cupgrass, Woolly",[4]; [22],0
same,"Cupgrass, Woolly plant response rating",[4]; [23],0
same,"Plant response rating, Foxtail, Giant",[5]; [16],45
same,"Plant response rating, Foxtail, Giant",[5]; [17],45
same,"Plant response rating, Foxtail, Giant",[5]; [18],60
same,"Plant response rating, Foxtail, Giant",[5]; [19],70
same,"Foxtail, Giant plant response rating",[5]; [20],75
same,"Plant response rating, Foxtail, Giant",[5]; [21],0
same,"Plant response rating, Foxtail, Giant",[5]; [22],0
same,"Foxtail, Giant plant response rating",[5]; [23],20
same,"Plant response rating, Corn",corn (Zea mays); [16],5
same,"Plant response rating, Corn",corn (Zea mays); [17],0
same,"Plant response rating, Corn",corn (Zea mays); [18],5
same,"Plant response rating, Corn",corn (Zea mays); [19],5
same,Corn plant response rating,corn (Zea mays); [20],15
same,"Plant response rating, Corn",corn (Zea mays); [21],0
same,"Plant response rating, Corn",corn (Zea mays); [22],0
same,Corn plant response rating,corn (Zea mays); [23],0
same,"Plant response rating, Nutsedge, Yellow",[6]; [16],65
same,"Plant response rating, Nutsedge, Yellow",[6]; [17],90
same,"Plant response rating, Nutsedge, Yellow",[6]; [18],65
same,"Plant response rating, Nutsedge, Yellow",[6]; [19],70
same,"Plant response rating, Nutsedge, Yellow",[6]; [21],60
same,"Nutsedge, Yellow plant response rating",[6]; [23],85
same,"Plant response rating, Foxtail, Green",[7]; [16],50
same,"Plant response rating, Foxtail, Green",[7]; [17],30
same,"Plant response rating, Foxtail, Green",[7]; [18],50
same,"Plant response rating, Foxtail, Green",[7]; [19],75
same,"Foxtail, Green plant response rating",[7]; [20],90
same,"Plant response rating, Foxtail, Green",[7]; [21],0
same,"Plant response rating, Foxtail, Green",[7]; [22],0
same,"Foxtail, Green plant response rating",[7]; [23],5
same,"Plant response rating, Ryegrass, Italian",[8]; [16],0
same,"Plant response rating, Ryegrass, Italian",[8]; [17],5
same,"Plant response rating, Ryegrass, Italian",[8]; [18],0
same,"Plant response rating, Ryegrass, Italian",[8]; [19],0
same,"Plant response rating, Ryegrass, Italian",[8]; [21],0
same,"Ryegrass, Italian plant response rating",[8]; [23],0
same,"Plant response rating, Blackgrass",[9]; [16],0
same,"Plant response rating, Blackgrass",[9]; [17],0
same,"Plant response rating, Blackgrass",[9]; [18],0
same,"Plant response rating, Blackgrass",[9]; [19],0
same,Blackgrass plant response rating,[9]; [20],30
same,"Plant response rating, Blackgrass",[9]; [21],0
same,"Plant response rating, Blackgrass",[9]; [22],0
same,Blackgrass plant response rating,[9]; [23],0
same,"Plant response rating, Ragweed",[10]; [16],75
same,"Plant response rating, Ragweed",[10]; [17],95
same,"Plant response rating, Ragweed",[10]; [18],80
same,"Plant response rating, Ragweed",[10]; [19],80
same,"Plant response rating, Ragweed",[10]; [21],70
same,Ragweed plant response rating,[10]; [23],80
same,"Plant response rating, Bromegrass, Downy",[11]; [16],0
same,"Plant response rating, Bromegrass, Downy",[11]; [18],0
same,"Plant response rating, Bromegrass, Downy",[11]; [19],0
same,"Bromegrass, Downy plant response rating",[11]; [20],5
same,"Plant response rating, Bromegrass, Downy",[11]; [21],0
same,"Plant response rating, Bromegrass, Downy",[11]; [22],0
same,"Bromegrass, Downy plant response rating",[11]; [23],0
same,"Plant response rating, Kochia",kochia (Kochia scoparia); [16],55
same,"Plant response rating, Kochia",kochia (Kochia scoparia); [18],65
same,"Plant response rating, Kochia",kochia (Kochia scoparia); [19],80
same,Kochia plant response rating,kochia (Kochia scoparia); [20],90
same,"Plant response rating, Surinam Grass",[12]; [16],15
same,"Plant response rating, Surinam Grass",[12]; [17],85
same,"Plant response rating, Surinam Grass",[12]; [18],30
same,"Plant response rating, Surinam Grass",[12]; [19],55
same,"Plant response rating, Surinam Grass",[12]; [21],0
same,Surinam Grass plant response rating,[12]; [23],75
same,"Plant response rating, Lambsquarters",[13]; [16],70
same,"Plant response rating, Lambsquarters",[13]; [17],98
same,"Plant response rating, Lambsquarters",[13]; [18],80
same,"Plant response rating, Lambsquarters",[13]; [19],90
same,Lambsquarters plant response rating,[13]; [20],98
same,"Plant response rating, Lambsquarters",[13]; [21],95
same,"Plant response rating, Lambsquarters",[13]; [22],95
same,Lambsquarters plant response rating,[13]; [23],98
same,"Plant response rating, Crabgrass, Large",[14]; [16],75
same,"Plant response rating, Crabgrass, Large",[14]; [17],100
same,"Plant response rating, Crabgrass, Large",[14]; [18],75
same,"Plant response rating, Crabgrass, Large",[14]; [19],80
same,"Crabgrass, Large plant response rating",[14]; [20],85
same,"Plant response rating, Crabgrass, Large",[14]; [21],75
same,"Plant response rating, Crabgrass, Large",[14]; [22],95
same,"Crabgrass, Large plant response rating",[14]; [23],98
same,"Plant response rating, Bermudagrass",[15]; [16],75
same,"Plant response rating, Bermudagrass",[15]; [17],100
same,"Plant response rating, Bermudagrass",[15]; [18],85
same,"Plant response rating, Bermudagrass",[15]; [19],95
same,Bermudagrass plant response rating,[15]; [20],98
same,Bermudagrass plant response rating,[15]; [23],98

# Source: patent publication US8952024B2, “Herbicidal pyrimidone derivatives” (E I du Pont de Nemours and Company, priority 2009, dated 2015)
